Experimental data: patent US20230365616A1, “CHOLESTANE DERIVATIVES, PREPARATIONS CONTAINING THESE DERIVATIVES AND USE THEREOF” (UNIVERZITA PALACKEHO V OLOMOUCI, priority 2020, published 2023)

Legend:
[1] = tested on: neuron-like SH-SY5Y cells; experiment: Glutamate-induced oxidative stress, superoxide radical formation by dihydroethidium staining; type: cell-based, human; settings: 4 hour co-treatment with 160 mM Glu, percentages of 160 mM Glu control, mean of three independent experiments
Experimental: Similarly as shown in previous assay, cells grew on 96 multiwell plates at density 20000 cells per well underwent differentiation and treatment procedure for glutamate model. After 4 hour co-treatment with glutamate superoxide radical's formation as marker of oxidative stress was quantified by dihydroethidium according to Kim et al. 2017, J. Med. Food, 20, 140-151 with modifications. Briefly, neuron-like SH-SYSY cells were centrifuged at 500 g for 5 minutes and 30 seconds, then media were replaced by 10 μM DHE PBS solution and kept at room temperature for 30 minutes. After 30 minutes, DHE was read at 500 nm/580 nm (excitation/emission) by Infinite M200 Pro (Tecan) microplate reader. DHE is cell permeable dye which is selective toward superoxide radical detection. Overall oxidative stress achieved by 160 mM Glu was consider as 100% so that the reduction in oxidative stress (OS reducing effect) was observed. As shown in Table 6 and FIG. 2, 160 mM Glu induced 2.6 fold increase in superoxide radical's formation.

[2] = tested on: human neuron-like SH-SY5Y cells; experiment: Neuroprotective effect on glutamate-induced oxidative damage, cell death by propidium iodide staining; type: cell-based; settings: for Neuroprotective effect (% of control): co-treatment with 160 mM Glu for 24 h, difference between 160 mM Glu and co-treatment group means; for Neuroprotective effect compared with positive controls (R-LA, DFO): 160 mM Glu, 24 h
Experimental: Similarly, to the previous test the assay was performed in 96-well microplates with 20000 cells per well. Day after the seeding of cells, SH-SYSY underwent all-trans retinoic acid (ATRA)-differentiation for 48 h (ATRA 10 μM). […] […] After 24 h the cell death was quantified by propidium iodide staining according to literature (Stone et al. BMC Cell Biol. 2003, 4, 1) with modifications. In general, PI staining is associated with damaged cell membrane or presence of dying cells (Stone et al. BMC Cell Biol. 2003, 4, 1). Due to the loss of adherence, damaged or death cells were stained by PI solution directly in media at 1.5 μM final concentration and incubated at room temperature for 15-25 minutes at room temperature. PI stained cells were quantified at 535/617 nm (excitation/emission) by Infinite M200 Pro (Tecan) microplate reader. Cell death generated by 160 mM Glu was consider as 100% of cell death so that reduction in cell death (neuroprotective effect) was observed.

[3] = tested on: SH-SY5Y human neuroblastoma cell line (neuron-like phenotype); experiment: Calcein AM viability test on ATRA-differentiated neuron-like SH-SY5Y cells; type: cell-based; settings: 24 hours of treatment, mean of two independent experiments
Experimental: (§1) The SH-SY5Y human neuroblastoma cell line obtained purchased from ECACC (The European Collection of Authenticated Cell Cultures) was cultivated in Dulbecco's modified Eagle's Medium and Ham's F12 Nutrient Mixture (DMEM:F-12, 1:1), supplemented with 10% fetal bovine serum (FBS) and 1% penicillin and streptomycin at 37° C. in a humidified atmosphere 5% CO2, 95% air in passage limit up to ECACC+20. The assay was performed in 96-well microplate with 7000 SH-SY5Y cells per well. Next day, SH-SY5Y underwent all-trans retinoic acid (ATRA)-differentiation for 48 h (ATRA 10 μM). After 48 h, old DMEM/F12 media was removed by fresh media containing tested compounds at 0.1, 1 and 10 μM concentrations for 24 h. The tested compounds were dissolved in DMSO were added into the medium. The maximum concentration of DMSO in media was kept below 0.1% (v/v). The cell viability was measured by Calcein AM (1 mg/ml ThermoFisher) viability assay. Solution of Calcein AM in PBS (0.75 μM) was pipetted to cells and incubated for 50 minutes. After that the fluorescence was measured at 488/517 nm (excitation/emission) using microplate reader Infinite M200 (TECAN). Calcein AM assay is based on the dye-intracellular-esterase cleavage of non-fluorescent dye (Calcein AM) by living cells to fluorescent dye (Calcein), while dyeing cells that lose such ability. The values in Table 4 show % of viability, relative to control of all tested compounds. The control (medium with DMSO, <0.1% (v/v)) was postulated as 100% viability (see the first line of the table).

[4] = as above; type: cell-based; settings: human, ATRA-differentiated neuron-like SH-SY5Y neuroblastoma cells, 24 hours of treatment, mean of two independent experiments, read-out: Viability (% of DMSO control)
[5] = as above; type: cell-based, human; settings: human, ATRA-differentiated neuron-like SH-SY5Y neuroblastoma cells; 1 μM, 24 hours of treatment, mean of two independent experiments; read-out: Viability (% of DMSO control)
Experimental: as §1

Structure (SMILES)	Superoxide radical formation (% of 160 mM glutamate control) ([1]; 5 μM)	Superoxide radical formation (% of 160 mM glutamate control) ([1]; 50 μM)	Neuroprotective effect (% of control) ([2]; 50 μM)	Superoxide radical formation (% of 160 mM glutamate control) ([1]; 1 μM)	Superoxide radical formation (% of 160 mM glutamate control) ([1]; 10 μM)	Viability (% of DMSO control) ([3]; 0.1 μM)	Viability (% of DMSO control) ([3]; 1 μM)	Viability (% of DMSO control) ([3]; 10 μM)	Neuroprotective effect (% of control) ([2]; 1 μM)	Neuroprotective effect compared with positive controls (R-LA, DFO) ([2]; 10 μM)	Neuroprotective effect (% of control) ([2]; 10 μM)	Superoxide radical formation (% of 160 mM glutamate control) ([1]; 100 μM)	viability at 24 h, 5 µM ([4]; 5 μM)	viability at 24 h, 50 µM ([4]; 50 μM)	viability at 24 h, 1 µM [5]	Neuroprotective effect (% of control) ([2]; 100 μM)
O=C(O)CCCC[C@@H]1CCSS1 [R-LA, R-lipoic acid, reference compound]	86.72%	83.91%	13.49 % of control													
CC[C@@H](C)[C@H]1CC[C@H]2[C@@H]3CC(=O)[C@H]4C[C@H](O)[C@H](O)C[C@]4(C)[C@H]3CC[C@]12C [Compound 6]				85.36%	80.19%	101.30 % of DMSO control	104.80 % of DMSO control	122.10 % of DMSO control	15.00 % of control	double neuroprotective effect than R-LA	33.70 % of control					
CC(=O)N(O)CCCCCNC(=O)CCC(=O)N(O)CCCCCNC(=O)CCC(=O)N(O)CCCCCN [DFO, deferoxamine, reference compound]					87.06%						19.94 % of control	92.61%	106%	110%	106%	23.55 % of control
CCCCC[C@@H](C)[C@H]1CC[C@H]2[C@@H]3CC(=O)[C@H]4C[C@H](O)[C@H](O)C[C@]4(C)[C@H]3CC[C@]12C [Compound 57]				93.34%	83.99%	105.90 % of DMSO control	108.90 % of DMSO control	117.10 % of DMSO control	15.99 % of control		24.88 % of control					
CCCC[C@@H](C)[C@H]1CC[C@H]2[C@@H]3CC(=O)[C@H]4C[C@H](O)[C@H](O)C[C@]4(C)[C@H]3CC[C@]12C [Compound 30]				84.54%	81.08%	99.41 % of DMSO control	102.30 % of DMSO control	104.70 % of DMSO control			23.17 % of control					
CCC[C@@H](C)[C@H]1CC[C@H]2[C@@H]3CC(=O)[C@H]4C[C@H](O)[C@H](O)C[C@]4(C)[C@H]3CC[C@]12C [Compound 15]				98.27%	85.61%	98.20 % of DMSO control	106.40 % of DMSO control	120.60 % of DMSO control		double neuroprotective effect than R-LA	30.08 % of control					
CC(C)CCC[C@@H](C)[C@H]1CC[C@H]2[C@@H]3CC(=O)[C@H]4C[C@H](O)[C@H](O)C[C@]4(C)[C@H]3CC[C@]12C [Compound 111]				89.17%	80.21%	106.90 % of DMSO control	107.80 % of DMSO control	109.90 % of DMSO control			26.52 % of control					
